Several values for one entry are separate records, joined by “and”; a condition that tells them apart may be missing. Equal entries are not always repeated. Where two headings read alike, the source gives them in different places.
Tested on: C. elegans
[1] = Table S2, C. elegans SS assay, 110 μM, 0 h, averages of 4 data points
[2] = Table S2, C. elegans SS assay, 110 μM, 24 h, averages of 4 data points

Row | Molecule | Percentage of motility inhibition 0 h [1] | Percentage of motility inhibition 24 h [2] | Percentage of motility inhibition 0 h (110 µM) | Percentage of motility inhibition 24 h (110 µM)
1 | NC(=O)c1cc[n+](CC2=C(C(=O)[O-])N3C(=O)[C@@H](NC(=O)[C@@H](c4ccccc4)S(=O)(=O)[O-])[C@H]3SC2)cc1.[Na+] [Cefsulodin (sodium)] | 17% | 6% |  | 
2 | CC(C(O)c1ccc(O)cc1)N1CCC(Cc2ccccc2)CC1.CC(C(O)c1ccc(O)cc1)N1CCC(Cc2ccccc2)CC1.O=C(O)C(O)C(O)C(=O)O (stereo not drawn) [Ifenprodil (ta rtrate)] | 12% | 15% |  | 
3 | COc1cc2c(cc1O)[C@@H]1Cc3ccc(OC)c(OC)c3CN1CC2 [(‐)‐Isocorypalmine] | 0% | 0% |  | 
4 | Ginkgolide B | 4% | 7% |  | 
5 | C=C[C@H]1[C@H](O[C@@H]2O[C@H](CO)[C@@H](O)[C@H](O)[C@H]2O)OC=C(C(=O)OC)[C@H]1C[C@@H]1c2cc(O)c(O)cc2CCN1C(C)=O [Ipecoside] | 0% | 14% |  | 
6 | Isoliquiritin apioside | 47% | 8% |  | 
7 | C=C(C)[C@H](CC=C(C)C)Cc1c(O)cc(OC)c2c1O[C@H](c1ccc(O)cc1O)[C@@H](O)C2=O [Kushenol I] | 0% | 8% |  | 
8 | C=CC(=C)CC/C=C(\C)CCC=C(C)C [(E)-β-Farnesene] | 0% | 11% |  | 
9 | (‐)‐Alkannin | 12% | 7% |  | 
10 | O=C([O-])c1ccc[n+]([C@@H]2O[C@H](CO)[C@@H](O)[C@H]2O)c1 [Nicotinic acid riboside] | 5% | 0% |  | 
11 | COc1cc2c(cc1OC)[C@H]1Cc3ccc(OC)c(OC)c3CN1CC2 [D‐Tetrahydropalmatine] | 0% | 0% |  | 
12 | Cl.Cl.Cn1cncc1CCN [3‐Methylhistamine (dihydrochloride)] | 4% | 0% |  | 
13 | CN[C@@H](Cc1c[nH]c2ccccc12)C(=O)O [L‐(+)‐Abrine] | 0% | 0% |  | 
14 | Schaftoside | 0% | 3% |  | 
15 | O=Cc1c[nH]c2cccc(O)c12 [4‐Hydroxy‐1H‐indole‐3‐carbaldehyde] | 23% | 5% |  | 
16 | OCC1=C[C@@H](O)[C@]2(O[C@@H]3O[C@H](CO)[C@@H](O)[C@H](O)[C@H]3O[C@@H]3O[C@H](CO)[C@@H](O)[C@H](O)[C@H]3O)C=CO[C@@H](O[C@@H]3O[C@H](CO)[C@@H](O)[C@H](O)[C@H]3O)[C@H]12 [Rehmannioside D] | 11% | 35% |  | 
17 | CC12CCC(CC1=O)C2(C)C (stereo not drawn) [(+)-Camphor] | 2% and 0% | 5% and 0% |  | 
18 | CNc1nc2nc[nH]c2c(=O)[nH]1 [N2‐Methylguanine] |  |  | 14% | 43%
19 | c1ccc2c(Cc3[nH]c4ccccc4c3Cc3c[nH]c4ccccc34)c[nH]c2c1 [2,3‐Bis(3‐indolylmethyl)indole] | 21% | 9% |  | 
20 | Notoginsenoside Fe | 0% | 0% |  | 
21 | CC(=O)O[C@H]1C[C@@]2(C)[C@@H](C[C@@H](O)[C@H]3[C@@]4(C)CC[C@@H](O)[C@@H](C)[C@@H]4CC[C@@]32C)/C1=C(\CCC=C(C)C)C(=O)[O-].[Na+] [Fusidic acid (sodium salt)] |  | 35% and 44% |  | 
22 | Cn1nnc(-c2ccc(-c3ccc(N4C[C@H](COP(=O)(O)O)OC4=O)cc3F)cn2)n1 [Tedizolid (phosphate)] | 10% | 12% |  | 
23 | COc1cc(OC)c(CCC(=O)c2ccc(O)cc2)c(OC)c1 [Loureirin B] | 10% | 0% |  | 
24 | C[C@@H](CO[C@@H]1O[C@H](CO)[C@@H](O)[C@H](O)[C@H]1O)[C@@H]1CC[C@@]2(CC[C@]3(C)[C@H](CC[C@@H]4[C@@]5(C)CC[C@H](O[C@@H]6O[C@H](CO)[C@@H](O)[C@H](O)[C@H]6O[C@@H]6OC[C@@H](O)[C@H](O)[C@H]6O)[C@@](C)(CO[C@@H]6O[C@H](CO)[C@@H](O)[C@H](O)[C@H]6O)[C@@H]5CC[C@]43C)[C@H]2O)CO1 [Hosenkoside M] | 5% | 0% |  | 

Row | Molecule | Percentage of motility inhibition 0 h [1] | Percentage of motility inhibition 24 h [2] | Percentage of motility inhibition 0 h (110 µM) | Percentage of motility inhibition 24 h (110 µM)
25 | O=C1C=C2C=C[C@@H]3C[C@@]2(O1)[C@H]1CCCCN31 [(-)-Securinine] |  | 5% |  | 
26 | CC(C)OC(=O)OCOP(=O)(CO[C@H](C)Cn1cnc2c(N)ncnc21)OCOC(=O)OC(C)C [Tenofovir (Disoproxil)] | 23% | 7% |  | 
27 | COc1cc(/C=C/C(=O)O[C@@H]2[C@H](O[C@@H]3O[C@@H](C)[C@H](O)[C@@H](O)[C@H]3O)[C@@H](O[C@@H]3O[C@@H](C)[C@H](O[C@@H]4OC[C@@H](O)[C@H](O)[C@H]4O)[C@@H](O)[C@H]3O)[C@H](OC(=O)[C@]34CCC(C)(C)C[C@H]3C3=CC[C@@H]5[C@@]6(C)C[C@H](O)[C@H](O[C@@H]7O[C@H](CO)[C@@H](O)[C@H](O)[C@H]7O)[C@@](C)(C(=O)O)[C@@H]6CC[C@@]5(C)[C@]3(CO)CC4)O[C@@H]2C)cc(OC)c1OC [Onjisaponin Z] | 4% | 21% |  | 
28 | NC[C@@H]1O[C@H](O[C@H]2[C@@H](O)[C@H](O[C@@H]3[C@@H](O)[C@H](N)C[C@H](N)[C@H]3O[C@H]3O[C@H](CO)[C@@H](O)[C@H](O)[C@H]3N)O[C@@H]2CO)[C@H](N)[C@@H](O)[C@@H]1O.O=S(=O)(O)O [Paromomycin (sulfate)] | 14% | 2% |  | 
29 | C=C(C)[C@H]1C=C[C@@](C)(O)CC1 [cis-Isolimonenol] | 2% | 30% |  | 
30 | NC(=O)[C@@H]1CC[C@@H]2CN1C(=O)N2OS(=O)(=O)[O-].[Na+] [Avibactam (sodium hydrate)] | 37% | 3% |  | 
31 | C[C@@H]1O[C@@H](O[C@H]2[C@H](Oc3c(-c4ccc(O)cc4)oc4cc(O)cc(O)c4c3=O)O[C@H](CO)[C@@H](O)[C@@H]2O)[C@H](O)[C@H](O)[C@H]1O [Kaempferol 3‐neohesperidoside] | 17% | 10% |  | 
32 | C[C@H]1O[C@@H](O[C@H]2CC[C@@]3(C)[C@@H](CC[C@]4(C)[C@@H]3C=CC3=C5CC(C)(C)CC[C@]5(CO)[C@H](O)C[C@]34C)[C@]2(C)CO)[C@H](O)[C@@H](O)[C@H]1O [Prosaikogenin D] | 15% | 54% |  | 
33 | COc1cccc2c1C(=O)c1c(O)c3c(c(O)c1C2=O)C[C@@](O)(C(=O)CO)C[C@@H]3O[C@H]1C[C@H](N)[C@H](O)[C@H](C)O1.Cl [Doxorubicin (hydrochloride)] | 13% | 4% |  | 
34 | CCOC(=O)c1c(CSc2ccccc2)n(C)c2cc(Br)c(O)c(CN(C)C)c12.Cl [Arbidol (hydrochloride)] | 33% | 3% |  | 
35 | N[C@@H](CCl)C(=O)O [β‐Chloro‐L‐alanine] | 27% | 7% |  | 
36 | C=C[C@]1(C)CC[C@@H](C(=C)C)C[C@H]1C(=C)C [β-Elemene] | 9% and 7% |  |  | 
37 | COc1cccc(OC)c1C(=O)N[C@@H]1C(=O)N2[C@@H]1SC(C)(C)[C@@H]2C(=O)[O-].[Na+] [Methicillin (sodium salt)] | 16% | 1% |  | 
38 | O=c1cc(-c2ccc(O)cc2)oc2cc(O)ccc12 [7,4'‐Dihydroxyflavone] | 5% | 0% |  | 
39 | COc1ccc(-c2cc(=O)c3c(O)c(OC)c(OC)c(OC)c3o2)cc1OC [5‐O‐Demethylnobiletin] | 26% | 29% |  | 
40 | COc1cc2c(cc1O)CC[n+]1cc3c4c(ccc3cc1-2)OCO4 [Groenlandicine] | 0% | 0% |  | 
41 | C[N+]1(C)CCC[C@H]1C(=O)[O-].Cl [Stachydrine hydrochloride] | 15% | 26% |  | 
42 | Evodiamine | 0% | 23% |  | 
43 | COc1ccc([C@@H]2CC(=O)c3c(O)cc(O[C@@H]4O[C@H](CO[C@@H]5O[C@@H](C)[C@H](O)[C@@H](O)[C@H]5O)[C@@H](O)[C@H](O)[C@H]4O)cc3O2)cc1 [Didymin] | 1% | 6% |  | 
44 | Liensinine (Diperchlorate) | 0% | 0% |  | 
45 | O=c1cc(-c2ccc(O)cc2)oc2c([C@@H]3O[C@H](CO)[C@@H](O)[C@H](O)[C@H]3O)c(O)c([C@@H]3OC[C@H](O)[C@H](O)[C@H]3O)c(O)c12 [Isoschaftoside] | 9% | 0% |  | 
46 | Cn1cc[n+](C[C@@]2(C)[C@H](C(=O)[O-])N3C(=O)C[C@H]3S2(=O)=O)n1 [AAI101] | 27% | 0% |  | 
47 | C=CC(=C)CCCC(C)CCCC(C)CCCC(C)C (stereo not drawn) [Neophytadiene] | 3% | 6% |  | 
48 | CCN1C[C@]2(C)CC[C@H](OC)C34C5C[C@@H]6CC[C@@](O)(C5C(=O)O6)C(C13)[C@@H](OC(=O)c1ccccc1)[C@@H]42 [6‐Benzoylheteratisine] | 16% | 23% |  | 

— article PMC11855827, “High-Throughput Screening of Five Compound Libraries for Anthelmintic Activity and Toxicity Leads to the Discovery of Two Flavonoid Compounds” (International Journal of Molecular Sciences, 2025)
